# Results taken from ChEMBL document CHEMBL1201862, “PubChem BioAssay data set” (2004).
# Calls of active or inactive are those of the source. For most assays here, no stated cut-off is given here; in the data, actives have a measured IC50 and inactives only a lower limit.
# Assays:
# HEK293 [1] = assay: NOD2 signaling inhibitors in MDP-stimulated cells, cell-based, uHTS, luminescence (AID 2001); type: functional; conditions: Homo sapiens
# HEK293 [2] = assay: inhibition of NOD1-driven NF-kB reporter – cell-based, luminescence, uHTS, primary screen (AID 1578); type: functional; conditions: Homo sapiens
# [3] = target: Nucleotide-binding oligomerization domain-containing protein 1 (Homo sapiens, UniProt Q9Y239); assay: blockers of NOD1 pathway activity – revised, SAR follow-up (AID 2333); type: functional
# Chain of Nucleotide-binding oligomerization domain-containing protein 1 (Q9Y239 whole entry, the tested form may be a part): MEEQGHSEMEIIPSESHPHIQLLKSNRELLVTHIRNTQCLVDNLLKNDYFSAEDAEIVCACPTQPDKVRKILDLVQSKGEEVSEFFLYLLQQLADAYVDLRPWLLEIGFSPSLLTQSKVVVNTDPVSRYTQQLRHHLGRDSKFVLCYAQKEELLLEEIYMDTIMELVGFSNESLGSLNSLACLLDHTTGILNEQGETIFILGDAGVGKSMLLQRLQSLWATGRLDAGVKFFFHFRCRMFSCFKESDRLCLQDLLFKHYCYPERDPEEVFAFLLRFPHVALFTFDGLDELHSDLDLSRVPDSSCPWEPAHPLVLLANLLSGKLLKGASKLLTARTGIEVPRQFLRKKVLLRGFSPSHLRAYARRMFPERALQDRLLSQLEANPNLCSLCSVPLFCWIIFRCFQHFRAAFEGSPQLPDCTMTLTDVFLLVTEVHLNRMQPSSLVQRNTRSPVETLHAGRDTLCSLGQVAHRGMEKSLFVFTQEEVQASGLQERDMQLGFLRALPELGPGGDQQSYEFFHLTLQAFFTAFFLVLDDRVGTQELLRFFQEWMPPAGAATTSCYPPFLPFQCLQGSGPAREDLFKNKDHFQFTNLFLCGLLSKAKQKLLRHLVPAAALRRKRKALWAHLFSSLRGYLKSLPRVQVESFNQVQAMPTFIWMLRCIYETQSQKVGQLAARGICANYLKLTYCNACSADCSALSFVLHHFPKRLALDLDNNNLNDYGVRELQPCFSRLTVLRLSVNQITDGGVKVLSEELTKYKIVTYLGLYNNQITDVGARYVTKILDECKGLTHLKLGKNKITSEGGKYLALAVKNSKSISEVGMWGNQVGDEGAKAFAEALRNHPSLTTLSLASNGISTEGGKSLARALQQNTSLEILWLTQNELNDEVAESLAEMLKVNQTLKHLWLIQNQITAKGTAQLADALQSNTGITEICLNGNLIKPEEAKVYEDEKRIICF
# [4] = target: T1, Nucleotide-binding oligomerization domain-containing protein 2 (Homo sapiens, UniProt Q9HC29); assay: PubChem AID 2334; type: functional
# T1 sequence (Q9HC29 whole entry, the tested form may be a part): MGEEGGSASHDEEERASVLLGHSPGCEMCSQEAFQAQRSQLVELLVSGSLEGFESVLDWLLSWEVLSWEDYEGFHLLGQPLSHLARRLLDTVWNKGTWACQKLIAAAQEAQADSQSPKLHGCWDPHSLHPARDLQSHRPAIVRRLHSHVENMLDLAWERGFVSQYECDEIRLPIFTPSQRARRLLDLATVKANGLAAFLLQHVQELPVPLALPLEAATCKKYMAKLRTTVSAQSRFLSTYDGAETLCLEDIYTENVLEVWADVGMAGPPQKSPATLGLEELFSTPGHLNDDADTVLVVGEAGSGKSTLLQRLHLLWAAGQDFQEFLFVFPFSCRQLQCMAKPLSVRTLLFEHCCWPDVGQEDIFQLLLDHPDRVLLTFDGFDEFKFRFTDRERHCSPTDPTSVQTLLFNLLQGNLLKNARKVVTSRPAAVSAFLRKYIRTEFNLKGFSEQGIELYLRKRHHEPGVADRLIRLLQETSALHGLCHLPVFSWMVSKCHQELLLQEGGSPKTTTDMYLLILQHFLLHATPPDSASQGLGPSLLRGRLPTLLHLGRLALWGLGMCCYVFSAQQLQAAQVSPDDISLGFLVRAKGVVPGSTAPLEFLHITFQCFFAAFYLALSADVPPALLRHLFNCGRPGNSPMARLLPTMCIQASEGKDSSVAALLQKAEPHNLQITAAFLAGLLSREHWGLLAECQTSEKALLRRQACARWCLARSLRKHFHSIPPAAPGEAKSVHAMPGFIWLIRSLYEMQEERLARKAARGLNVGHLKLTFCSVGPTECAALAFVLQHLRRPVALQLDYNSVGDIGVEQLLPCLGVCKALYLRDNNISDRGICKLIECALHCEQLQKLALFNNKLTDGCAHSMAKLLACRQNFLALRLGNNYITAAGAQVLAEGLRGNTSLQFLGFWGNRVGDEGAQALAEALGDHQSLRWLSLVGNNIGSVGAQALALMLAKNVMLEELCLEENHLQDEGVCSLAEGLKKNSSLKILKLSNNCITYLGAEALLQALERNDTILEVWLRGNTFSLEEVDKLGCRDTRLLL
# HEK293 [5] = assay: cells; type: functional, cell-based; conditions: Homo sapiens
# Tumor necrosis factor = Tumor necrosis factor (Homo sapiens, UniProt P01375); assay: analog potency on TNFa NF-kB signaling – cell-based, revised, SAR follow-up (AID 2337); type: functional
# Chain of Tumor necrosis factor (P01375 whole entry, the tested form may be a part): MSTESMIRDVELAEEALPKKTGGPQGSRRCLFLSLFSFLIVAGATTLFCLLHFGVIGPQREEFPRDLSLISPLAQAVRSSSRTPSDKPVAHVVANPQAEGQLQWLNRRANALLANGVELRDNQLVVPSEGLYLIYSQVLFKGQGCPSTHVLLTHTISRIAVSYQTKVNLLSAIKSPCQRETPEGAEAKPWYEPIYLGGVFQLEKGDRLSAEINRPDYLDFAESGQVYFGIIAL
# [6] = target: T1, Nucleotide-binding oligomerization domain-containing protein 2; assay: inhibition of NOD2-driven NF-kB reporter – cell-based, luminescence, uHTS, HEK293 (AID 1566); type: functional
# HEK293 [7] = assay: cells; conditions: Homo sapiens
# HEK293 [8] = assay: cells; type: functional, cell-based; conditions: Homo sapiens; remark: listed apart in the source
# HEK293 [9] = assay: cells; type: functional, cell-based; conditions: Homo sapiens; remark: listed apart in the source
# T-cell = assay: loss of vesicle association with mouse CD8+ T cells – mouse 2C CD8+ T cells, flow cytometry, dose response (AID 485284); type: functional
# Coagulation factor XII = target: T2, Coagulation factor XII (Homo sapiens, UniProt P00748); assay: Factor XIIa Dose Response Confirmation from Single Well HTS. [Related pubchem assays (depositor defined):AID701]; type: functional
# T2 sequence (P00748 whole entry): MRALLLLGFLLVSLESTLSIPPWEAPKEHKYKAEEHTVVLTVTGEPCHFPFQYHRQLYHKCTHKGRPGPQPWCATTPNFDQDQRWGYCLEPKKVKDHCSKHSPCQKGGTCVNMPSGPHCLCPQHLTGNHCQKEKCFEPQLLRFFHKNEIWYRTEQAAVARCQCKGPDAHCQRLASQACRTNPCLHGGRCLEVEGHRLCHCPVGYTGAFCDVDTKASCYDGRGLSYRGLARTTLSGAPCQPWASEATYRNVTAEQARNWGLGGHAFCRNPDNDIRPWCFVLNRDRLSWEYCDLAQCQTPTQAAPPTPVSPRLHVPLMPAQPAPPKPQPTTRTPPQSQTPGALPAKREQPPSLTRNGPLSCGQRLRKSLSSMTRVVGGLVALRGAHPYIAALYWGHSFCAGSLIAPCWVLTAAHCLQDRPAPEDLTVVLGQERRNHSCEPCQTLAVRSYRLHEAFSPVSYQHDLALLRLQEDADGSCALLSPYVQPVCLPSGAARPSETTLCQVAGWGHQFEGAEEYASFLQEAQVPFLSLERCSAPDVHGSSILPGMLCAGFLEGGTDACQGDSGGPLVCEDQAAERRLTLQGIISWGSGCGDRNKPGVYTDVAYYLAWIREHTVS
# [10] = target: Sphingosine 1-phosphate receptor 4 (Homo sapiens, UniProt O95977); assay: Late-stage fluorescence dose response cell-based assay to identify agonists of the Sphingosine 1-Phosphate Receptor 4 (S1P4): purchased compounds EC50. [Related pubchem assays (depositor defined):AID1509, AID1523, AID1563, AID1686, AID1701, AID1801]; type: functional
# Chain of Sphingosine 1-phosphate receptor 4 (O95977 whole entry): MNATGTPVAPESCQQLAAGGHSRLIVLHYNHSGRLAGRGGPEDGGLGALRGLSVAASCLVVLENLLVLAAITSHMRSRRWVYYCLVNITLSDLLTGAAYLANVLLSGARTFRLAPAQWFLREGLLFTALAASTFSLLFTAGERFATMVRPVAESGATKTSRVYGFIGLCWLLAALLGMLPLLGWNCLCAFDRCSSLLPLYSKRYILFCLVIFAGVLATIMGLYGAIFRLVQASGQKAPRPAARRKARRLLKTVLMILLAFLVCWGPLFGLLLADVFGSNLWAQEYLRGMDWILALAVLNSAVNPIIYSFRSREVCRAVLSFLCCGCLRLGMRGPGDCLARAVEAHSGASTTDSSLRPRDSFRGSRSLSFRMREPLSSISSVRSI
# [11] = target: DNA dC->dU-editing enzyme APOBEC-3A (Homo sapiens, UniProt P31941); assay: Dose Response confirmation of small molecule APOBEC3A DNA Deaminase Inhibitors via a fluorescence-based single-stranded DNA deaminase assay. [Related pubchem assays (depositor defined):AID493011, AID493024]; type: functional
# Chain of DNA dC->dU-editing enzyme APOBEC-3A (P31941 whole entry): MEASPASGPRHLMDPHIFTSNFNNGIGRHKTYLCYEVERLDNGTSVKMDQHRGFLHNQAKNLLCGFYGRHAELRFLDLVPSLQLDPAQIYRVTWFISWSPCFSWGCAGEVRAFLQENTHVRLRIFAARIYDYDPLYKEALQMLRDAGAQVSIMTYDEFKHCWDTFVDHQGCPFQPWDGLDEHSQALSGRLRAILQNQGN
# [12] = target: DNA dC->dU-editing enzyme APOBEC-3G (Homo sapiens, UniProt Q9HC16); type: functional;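 further: Dose-response counterscreen measuring inhibition of APOBEC3G DNA deaminase activity, run while confirming APOBEC3A inhibitors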
# Chain of DNA dC->dU-editing enzyme APOBEC-3G (Q9HC16 whole entry): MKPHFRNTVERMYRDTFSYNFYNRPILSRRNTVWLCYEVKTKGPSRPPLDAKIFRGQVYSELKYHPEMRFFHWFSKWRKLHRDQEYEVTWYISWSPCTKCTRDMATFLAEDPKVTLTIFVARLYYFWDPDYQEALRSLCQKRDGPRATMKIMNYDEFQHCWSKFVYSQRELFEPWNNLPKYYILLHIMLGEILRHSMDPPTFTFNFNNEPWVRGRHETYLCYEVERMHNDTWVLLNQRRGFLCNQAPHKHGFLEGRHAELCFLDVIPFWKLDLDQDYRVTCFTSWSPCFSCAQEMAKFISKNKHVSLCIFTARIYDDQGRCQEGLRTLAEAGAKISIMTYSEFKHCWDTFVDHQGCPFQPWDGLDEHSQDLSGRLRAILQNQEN
smiles,measurement,setting,value
Cc1cc(Cl)ccc1OCC(=O)Nc1ccccc1NS(=O)(=O)c1cccs1,IC50,HEK293 [1],15.8 µM (inactive)
same,EC50,HEK293 [2],5.15 µM (active)
same,IC50,[3],4.55 µM (active)
same,IC50,[4],8.21 µM (active)
same,IC50,HEK293 [5],> 20 µM (inactive)
same,IC50,Tumor necrosis factor,12.3 µM (active)
same,EC50,[6],6.8 µM (active)
same,IC50,HEK293 [7],> 20 µM (inactive)
same,IC50,HEK293 [8],> 20 µM (inactive)
same,IC50,HEK293 [9],> 20 µM (inactive)
CCC(C(=O)Nc1ccccc1)c1ccccc1 (stereo not given),EC50,T-cell,0.0882 µM (active)
CC1(C)c2ssc(=S)c2-c2ccccc2N1C(=O)c1ccco1,IC50,Coagulation factor XII,> 50 µM (inactive)
Cc1nn(Cc2ccccc2)c(Cl)c1C(=O)OC(C)C(=O)Nc1nc(-c2ccccc2)cs1 (stereo not given),EC50,[10],> 50 µM (inactive)
CC(Oc1ccc(Br)cc1)C(=O)Nc1cc(Cl)ccc1N1CCN(C)CC1 (stereo not given),IC50,[11],3.15 µM (active)
same,IC50,[12],4.26 µM (active)
